Consider 34 sequences from the supplement of paper PMC11208160.
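Further: IS621 bridge recombinase in Escherichia coli cells against a fixed T5 target plasmid.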

The data set is described as follows: recombinant UMI read abundance after kanamycin selection (control-corrected) (log10(CPM+1)); higher = more efficient recombination; extreme values may be limits of the assay; sequences stand for … in AGTGCAGAGAAAATCGGCCAGTTTTCTCTGCCTGCAGTCCGCATGCCGTGGGACCCCTTGGGTTCTAACCTGTTGCCTAGATTTATGCAGCGGACTGCCTTTCTCCCAAAGTGATAAACCGG…AGGTTGGTTTCACT; site = the 11-nt donor. The method in brief:
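Pooled Escherichia coli screen of donor and donor-binding-loop pairs for the IS621 bridge recombinase. Each pair sits with a 12-nt UMI on a plasmid carrying a promoterless kanamycin gene. The library was co-electroporated with a target plasmid encoding a fixed target and T7-inducible recombinase, then plated with IPTG (0.07 mM) plus kanamycin, or unselected, each in two replicates. Recombinant UMIs were PCR-amplified across the donor–target junction and sequenced. Counts became CPM, averaged over replicates, scaled by control-derived factors and reported as log10(CPM+1).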
Take “ATCTATCCATGGACCGGTTTTCCCGGTAATCCGTATTTGAC (site ATCTATGCTGT)”: the “recombinant UMI read abundance (log10)” value was 0.
With “ATCTATCCATGGACCGGTTTTCCCGGTAATCCGTATTTGAC (site ATCTATTCTGT)”, the “recombinant UMI read abundance (log10)” value stood at 0.
In the case of “ATCTATTCATGGACCGGTTTTCCCGGTAATCCGTATTTGAC (site ATCTATACTGT)”, the “recombinant UMI read abundance (log10)” value is 0.00799.
With “ATCTATTCATGGACCGGTTTTCCCGGTAATCCGTATTTGAC (site ATCTATCCTGT)”, the “recombinant UMI read abundance (log10)” value turned out to be 1.89.
In the case of “ATCTATTCATGGACCGGTTTTCCCGGTAATCCGTATTTGAC (site ATCTATGCTGT)”, the “recombinant UMI read abundance (log10)” value stood at 0.
As to “ATCTATTCATGGACCGGTTTTCCCGGTAATCCGTATTTGAC (site ATCTATTCTGT)”, the “recombinant UMI read abundance (log10)” value came to 1.51.
With “ATGAAGGCATGGACCGGTTTTCCCGGTAATCCGTATTTGGC (site ATGAAGGCTGC)” the figure was 2.32.
“ATGAAGGCATGGACCGGTTTTCCCGGTAATCCGTATTTGGC (site ATGCAGGCTGC)”: the “recombinant UMI read abundance (log10)” value came to 1.72.
On to “ATGAAGGCATGGACCGGTTTTCCCGGTAATCCGTATTTGGC (site ATGGAGGCTGC)”, for which the “recombinant UMI read abundance (log10)” value amounted to 2.09.
For the sequence “ATGAAGGCATGGACCGGTTTTCCCGGTAATCCGTATTTGGC (site ATGTAGGCTGC)”, the “recombinant UMI read abundance (log10)” value stood at 2.08.
For “ATGACGACATGGACCGGTTTTCCCGGTAATCCGTATTTGCA (site AGGAAGACTTG)” the value was 0; for “ATGACGACATGGACCGGTTTTCCCGGTAATCCGTATTTGCA (site ATGACGACTTG)”, 1.81.
As to “ATGACTACATGGACCGGTTTTCCCGGTAATCCGTATTTGAC (site AAGACTACTGT)”, the “recombinant UMI read abundance (log10)” value was 0.508.
For “ATGACTACATGGACCGGTTTTCCCGGTAATCCGTATTTGAC (site ACGACTACTGT)” the value was 1.92; for “ATGACTACATGGACCGGTTTTCCCGGTAATCCGTATTTGAC (site AGGACTACTGT)”, 0.907; for “ATGACTACATGGACCGGTTTTCCCGGTAATCCGTATTTGAC (site ATGACTACTGT)”, 2.54.
Consider “ATGACTGCATGGACCGGTTTTCCCGGTAATCCGTATTTGTC (site ATGACTGCTGA)”, for which the “recombinant UMI read abundance (log10)” value amounted to 1.47.
On to “ATGAGCACATGGACCGGTTTTCCCGGTAATCCGTATTTGGA (site ATGAGCACTTC)”, for which the “recombinant UMI read abundance (log10)” value is 0.82.
With “ATGAGGCCATGGACCGGTTTTCCCGGTAATCCGTATTTGAC (site ATAAGGCCTGT)”, the “recombinant UMI read abundance (log10)” value turned out to be 0.
Take “ATGAGGCCATGGACCGGTTTTCCCGGTAATCCGTATTTGAC (site ATCAGGCCTGT)”: the “recombinant UMI read abundance (log10)” value was found to be 0.
Regarding “ATGAGGCCATGGACCGGTTTTCCCGGTAATCCGTATTTGAC (site ATGAGGCCTGT)”, the “recombinant UMI read abundance (log10)” value was 0.716.
With “ATGAGGCCATGGACCGGTTTTCCCGGTAATCCGTATTTGAC (site ATTAGGCCTGT)” the figure was 0; with “ATGATGGCATGGACCGGTTTTCCCGGTAATCCGTATTTGAC (site ATGATGGCTGT)”, 2.7.
“ATGCAGGCATGGACCGGTTTTCCCGGTAATCCGTATTTGGC (site ATGAAGGCTGC)”: the “recombinant UMI read abundance (log10)” value is 0.
For “ATGCAGGCATGGACCGGTTTTCCCGGTAATCCGTATTTGGC (site ATGCAGGCTGC)”, the “recombinant UMI read abundance (log10)” value is 2.77.
As to “ATGCAGGCATGGACCGGTTTTCCCGGTAATCCGTATTTGGC (site ATGGAGGCTGC)”, the “recombinant UMI read abundance (log10)” value was 0.
As to “ATGCAGGCATGGACCGGTTTTCCCGGTAATCCGTATTTGGC (site ATGTAGGCTGC)”, the “recombinant UMI read abundance (log10)” value came out at 0.922.
As for “ATGCCACCATGGACCGGTTTTCCCGGTAATCCGTATTTGTA (site ATGCCACCTTA)”, the “recombinant UMI read abundance (log10)” value was determined as 0.
For “ATGCTGACATGGACCGGTTTTCCCGGTAATCCGTATTTGGT (site ATGCTGACTAC)” the value was 1.32; for “ATGCTTCCATGGACCGGTTTTCCCGGTAATCCGTATTTGCA (site ATGCTTCCTTG)”, 1.47.
For “ATGGAGACATGGACCGGTTTTCCCGGTAATCCGTATTTGGT (site ATAGAGACTAC)” the value was 1.66.
With “ATGGAGACATGGACCGGTTTTCCCGGTAATCCGTATTTGGT (site ATCGAGACTAC)” the figure was 0.157; with “ATGGAGACATGGACCGGTTTTCCCGGTAATCCGTATTTGGT (site ATGGAGACTAC)”, 1.83.
“ATGGAGACATGGACCGGTTTTCCCGGTAATCCGTATTTGGT (site ATTGAGACTAC)”: the “recombinant UMI read abundance (log10)” value is 0.681.
